pIC50: −log10 of the molar value.

25 molecules from patent US20260028326A1, “COMPOUND BASED ON ISOINDOLINE-SUBSTITUTED GLUTARIMIDE BACKBONE AND USE THEREOF” (GLUETACS THERAPEUTICS (SHANGHAI) CO., LTD., priority 2022, published 2026) can be followed below.

For the experiment, the target named is human Cereblon WT GST-tagged protein (Homo sapiens (Human), UniProt Q96SW2). As to the kind of experiment: CRBN-binding affinity, HTRF (CEREBLON BINDING kit). The protocol: The CEREBLON BINDING kits (specification: 10,000 tests; product number: Catalog #64BDCRBNPEH; CISBIO company) was used to determine the CRBN binding ability of the compounds to be tested through a HTRF method (homogeneous time-resolved fluorescence). The specific methods are as follows: • 1. […] Then, 2.5 μL of human Cereblon WT GST-tagged protein solution was added to each well. Finally, 5 μL of the thoroughly mixed Thalidomide-Re reagent and GST Eu antibody working solution were added to each of the aforementioned wells. […] The blank control wells were sequentially added with 2.5 μL of diluent #9 (1×) solution, 2.5 μL of PROTAC binding buffer, and 5 μL of thoroughly mixed Thalidomide-Re reagent and GST Eu antibody working solution. • 4.
Sequence of human Cereblon WT GST-tagged protein (Q96SW2 whole entry): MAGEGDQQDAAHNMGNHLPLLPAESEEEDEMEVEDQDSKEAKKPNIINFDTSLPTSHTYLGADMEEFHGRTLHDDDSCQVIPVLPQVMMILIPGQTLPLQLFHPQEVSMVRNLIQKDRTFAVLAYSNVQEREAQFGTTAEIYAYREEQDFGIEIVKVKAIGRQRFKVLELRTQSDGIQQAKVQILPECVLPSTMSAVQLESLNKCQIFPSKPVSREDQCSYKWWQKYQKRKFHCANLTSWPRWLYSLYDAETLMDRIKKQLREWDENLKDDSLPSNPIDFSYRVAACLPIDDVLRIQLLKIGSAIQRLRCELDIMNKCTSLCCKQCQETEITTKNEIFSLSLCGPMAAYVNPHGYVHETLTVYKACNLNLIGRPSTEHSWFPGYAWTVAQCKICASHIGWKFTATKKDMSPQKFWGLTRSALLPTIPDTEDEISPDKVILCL
The corresponding CRBN binding inhibition rate was calculated using the following method: […]
(In general: Time-resolved FRET reads energy transfer from a long-lived donor to a nearby acceptor.)
Usually pIC50 stands for −log10 of the IC50, conventionally taken in molar units. High values mean a small IC50, low ones a large IC50. Consider `O=C1CCC(N2Cc3cc(CC4CCN(Cc5ccccc5-c5ccc(Cl)cc5)CC4)ccc3C2=O)C(=O)N1` (stereo not shown) [GT-03361, 3-(5-((1-((4′-chloro-[1,1′-biphenyl]-2-yl)methyl)piperidin-4-yl)methyl)-1-oxoisoindolin-2-yl)piperidine-2,6-dione], for which the pIC50 was 5.80.

Molecule `CC1(C)CCC(CN2CCC(Cc3ccc4c(c3)CN(C3CCC(=O)NC3=O)C4=O)CC2)=C(c2ccc(Cl)cc2)C1` (stereo not shown) [GT-03368, 3-(5-((1-((4′-chloro-5,5-dimethyl-3,4,5,6-tetrahydro-[1,1′-biphenyl]-2-yl)methyl)piperidin-4-yl)methyl)-1-oxoisoindolin-2-yl)piperidine-2,6-dione] showed a pIC50 of 5.86.

The molecule `CC1(C)CCC(CN2CCC(Cc3ccc4c(c3)CN(C3CCC(=O)NC3=O)C4=O)CC2)=C(c2ccc(F)cc2)C1` (stereo not shown) [GT-03455, 3-(5-((1-((4′-fluoro-5,5-dimethyl-3,4,5,6-tetrahydro-[1,1′-biphenyl]-2-yl)methyl)piperidin-4-yl)methyl)-1-oxoisoindolin-2-yl)piperidine-2,6-dione] had a pIC50 of 6.47.

Regarding `CC1(C)CCC(CN2CC3CC(C2)N3Cc2ccc3c(c2)CN(C2CCC(=O)NC2=O)C3=O)=C(c2ccc(Cl)cc2)C1` (stereo not shown) [GT-03492, 3-(5-((3-((4′-chloro-5,5-dimethyl-3,4,5,6-tetrahydro-[1,1′-biphenyl]-2-yl)methyl)-3,6-diazabicyclo[3.1.1]heptan-6-yl)methyl)-1-oxoisoindolin-2-yl)piperidine-2,6-dione], the pIC50 was 6.28.

Consider `O=C1CCC(N2Cc3cc(CN4CCN(Cc5ccccc5-c5ccc(Cl)cc5)CC4)cc(F)c3C2=O)C(=O)N1` (stereo not shown) [GT-03696, 3-(5-((4-((4′-chloro-[1,1′-biphenyl]-2-yl)methyl)piperazin-1-yl)methyl)-7-fluoro-1-oxoisoindolin-2-yl)piperidine-2,6-dione], for which the pIC50 was 6.06.

As to `O=C1CCC(N2Cc3cc(NC4CCN(Cc5ccccc5-c5ccc(Cl)cc5)CC4)ccc3C2=O)C(=O)N1` (stereo not shown) [GT-03877, 3-(5-((1-((4′-chloro-[1,1′-biphenyl]-2-yl)methyl)piperidin-4-yl)amino)-1-oxoisoindolin-2-yl)piperidine-2,6-dione], the pIC50 was 5.85.

As for `O=C1CCC(N2Cc3cc(C(O)C4(O)CN(Cc5ccccc5-c5ccc(Cl)cc5)C4)ccc3C2=O)C(=O)N1` (stereo not shown) [GT-03880, 3-(5-((1-((4′-chloro-[1,1′-biphenyl]-2-yl)methyl)-3-hydroxyazetidin-3-yl)(hydroxy)methyl)-1-oxoisoindolin-2-yl)piperidine-2,6-dione], the pIC50 is 6.64.

As to `CC1(C)CCC(CN2C[C@H]3C[C@@H]2CN3Cc2ccc3c(c2)CN(C2CCC(=O)NC2=O)C3=O)=C(c2ccc(Cl)cc2)C1` (stereo partly drawn) [GT-03887, 3-(5-(((1R,4R)-5-((4′-chloro-5,5-dimethyl-3,4,5,6-tetrahydro-[1,1′-biphenyl]-2-yl)methyl)-2,5-diazabicyclo[2.2.1]heptan-2-yl)methyl)-1-oxoisoindolin-2-yl)piperidine-2,6-dione], the negative logarithm of the IC50 (pIC50) was 6.72.

The molecule `CC1(C)CCC(CN2C[C@H]3C[C@@H]2CN3Cc2ccc3c(c2F)CN(C2CCC(=O)NC2=O)C3=O)=C(c2ccc(Cl)cc2)C1` (stereo partly drawn) [GT-03888, 3-(5-(((1R,4R)-5-((4′-chloro-5,5-dimethyl-3,4,5,6-tetrahydro-[1,1′-biphenyl]-2-yl)methyl)-2,5-diazabicyclo[2.2.1]heptan-2-yl)methyl)-4-fluoro-1-oxoisoindolin-2-yl)piperidine-2,6-dione] gave a pIC50 of 6.62.

`CC1(C)CCC(CN2CC3CCC(C2)N3Cc2ccc3c(c2)CN(C2CCC(=O)NC2=O)C3=O)=C(c2ccc(Cl)cc2)C1` (stereo not shown) [GT-03889, 3-(5-((3-((4′-chloro-5,5-dimethyl-3,4,5,6-tetrahydro-[1,1′-biphenyl]-2-yl)methyl)-3,8-diazabicyclo[3.2.1]octan-8-yl)methyl)-1-oxoisoindolin-2-yl)piperidine-2,6-dione]: the pIC50 was 6.15.

Take `O=C1CCC(N2Cc3cc(CC4CN(Cc5ccccc5-c5ccc(Cl)cc5)C4)ccc3C2=O)C(=O)N1` (stereo not shown) [GT-03923, 3-(5-((1-((4′-chloro-[1,1′-biphenyl]-2-yl)methyl)azetidin-3-yl)methyl)-1-oxoisoindolin-2-yl)piperidine-2,6-dione]: the pIC50 was 6.77.

The molecule `O=C1CCC(N2Cc3cc(CN4CCC(Nc5ccccc5-c5ccc(Cl)cc5)CC4)ccc3C2=O)C(=O)N1` (stereo not shown) [GT-03991, 3-(5-((4-((4′-chloro-[1,1′-biphenyl]-2-yl)amino)piperidin-1-yl)methyl)-1-oxoisoindolin-2-yl)piperidine-2,6-dione] had a pIC50 of 6.33.

`CC1(C)CCC(CN2C3CC2CN(Cc2ccc4c(c2)CN(C2CCC(=O)NC2=O)C4=O)C3)=C(c2ccc(Cl)cc2)C1` (stereo not shown) [GT-03995, 3-(5-((6-((4′-chloro-5,5-dimethyl-3,4,5,6-tetrahydro-[1,1′-biphenyl]-2-yl)methyl)-3,6-diazabicyclo[3.1.1]heptan-3-yl)methyl)-1-oxoisoindolin-2-yl)piperidine-2,6-dione] showed a pIC50 of 6.20.

`CC1(C)CCC(CN2C3CCC2CN(Cc2ccc4c(c2)CN(C2CCC(=O)NC2=O)C4=O)C3)=C(c2ccc(Cl)cc2)C1` (stereo not shown) [GT-03996, 3-(5-((8-((4′-chloro-5,5-dimethyl-3,4,5,6-tetrahydro-[1,1′-biphenyl]-2-yl)methyl)-3,8-diazabicyclo[3.2.1]octan-3-yl)methyl)-1-oxoisoindolin-2-yl)piperidine-2,6-dione] showed a pIC50 of 5.84. Against the preceding molecule, the pIC50 is 0.36 log units lower.

`O=C1CCC(N2Cc3cc(CN4C5CC4CN(C(=O)C4=C(c6ccc(F)cc6)CCCC4)C5)ccc3C2=O)C(=O)N1` (stereo not shown) [GT-04169, 3-(5-((3-(4′-fluoro-3,4,5,6-tetrahydro-[1,1′-biphenyl]-2-carbonyl)-3,6-diazabicyclo[3.1.1]heptan-6-yl)methyl)-1-oxoisoindolin-2-yl)piperidine-2,6-dione] showed a pIC50 of 6.07. This pIC50 is 0.23 log units higher than that of the molecule before.

With `O=C1CCC(N2Cc3cc(CN4CCN(C(=O)C5=C(c6ccc(F)cc6)CCCC5)CC4)ccc3C2=O)C(=O)N1` (stereo not shown) [GT-04170, 3-(5-((4-(4′-fluoro-3,4,5,6-tetrahydro-[1,1′-biphenyl]-2-carbonyl)piperazin-1-yl)methyl)-1-oxoisoindolin-2-yl)piperidine-2,6-dione], the pIC50 was 6.00.

For the molecule `O=C1CCC(N2Cc3cc(NC4CN(Cc5ccccc5-c5ccc(Cl)cc5)C4)c(F)cc3C2=O)C(=O)N1` (stereo not shown) [GT-04204, 3-(5-((1-((4′-chloro-[1,1′-biphenyl]-2-yl)methyl)azetidin-3-yl)amino)-6-fluoro-1-oxoisoindolin-2-yl)piperidine-2,6-dione], the pIC50 was 6.28.

The molecule `O=C1CCC(N2Cc3cc(CN4CCN(C(=O)c5ccncc5-c5ccc(Cl)cc5)CC4)ccc3C2=O)C(=O)N1` (stereo not shown) [GT-04222, 3-(5-((4-(3-(4-chlorophenyl)isonicotinoyl)piperazin-1-yl)methyl)-1-oxoisoindolin-2-yl)piperidine-2,6-dione] had a negative-log IC50 (pIC50) of 6.25.

Turning to `CC1(C)CCC(C(=O)N2CCN(Cc3ccc4c(c3)CN(C3CCC(=O)NC3=O)C4=O)CC2)=C(c2ccc(Cl)cc2)C1` (stereo not shown) [GT-04224, 3-(5-((4-(4′-chloro-5,5-dimethyl-3,4,5,6-tetrahydro-[1,1′-biphenyl]-2-carbonyl)piperazin-1-yl)methyl)-1-oxoisoindolin-2-yl)piperidine-2,6-dione], the pIC50 is 6.37.

`O=C1CCC(N2Cc3cc(NC4CN(C(=O)c5ccccc5-c5ccc(Cl)cc5)C4)ccc3C2=O)C(=O)N1` (stereo not shown) [GT-04397, 3-(5-((1-(4′-chloro-[1,1′-biphenyl]-2-carbonyl)azetidin-3-yl)amino)-1-oxoisoindolin-2-yl)piperidine-2,6-dione]: the pIC50 is 6.70. This pIC50 is 0.33 log units higher than that of the molecule before.

Take `O=C1CCC(N2Cc3c(CN4CCC(Nc5ccccc5-c5ccc(Cl)cc5)CC4)cccc3C2=O)C(=O)N1` (stereo not shown) [GT-04947, 3-(4-((4-((4′-chloro-[1,1′-biphenyl]-2-yl)amino)piperidin-1-yl)methyl)-1-oxoisoindolin-2-yl)piperidine-2,6-dione]: the pIC50 is 6.41.

As for `CC1(C)CCC(C(=O)N2CCN(Cc3ccc(-c4ccc5c(c4)CN(C4CCC(=O)NC4=O)C5=O)cc3)CC2)=C(c2ccc(Cl)cc2)C1` (stereo not shown) [GT-05359, 3-(5-(4-((4-(4′-chloro-5,5-dimethyl-3,4,5,6-tetrahydro-[1,1′-biphenyl]-2-carbonyl)piperazin-1-yl)methyl)phenyl)-1-oxoisoindolin-2-yl)piperidine-2,6-dione], the negative-log IC50 (pIC50) is 6.01.

Regarding `CC1(C)CCC(CN2CCN(CCc3ccc4c(c3)CN(C3CCC(=O)NC3=O)C4=O)CC2)=C(c2ccc(Cl)cc2)C1` (stereo not shown) [GT-05361, 3-(5-(2-(4-((4′-chloro-5,5-dimethyl-3,4,5,6-tetrahydro-[1,1′-biphenyl]-2-yl)methyl)piperazin-1-yl)ethyl)-1-oxoisoindolin-2-yl)piperidine-2,6-dione], the pIC50 is 6.43.

Molecule `CC1(C)CCC(CN2CCN(CCCc3ccc4c(c3)CN(C3CCC(=O)NC3=O)C4=O)CC2)=C(c2ccc(Cl)cc2)C1` (stereo not shown) [GT-05362, 3-(5-(3-(4-((4′-chloro-5,5-dimethyl-3,4,5,6-tetrahydro-[1,1′-biphenyl]-2-yl)methyl)piperazin-1-yl)propyl)-1-oxoisoindolin-2-yl)piperidine-2,6-dione] had a pIC50 of 5.90.

For `CC1(C)CCC(CN2CCN(C(=O)c3ccc4c(c3)C(=O)N(C3CCC(=O)NC3=O)C4=O)CC2)=C(c2ccc(Cl)cc2)C1` (stereo not shown) [GT-05366, 5-(4-((4′-chloro-5,5-dimethyl-3,4,5,6-tetrahydro-[1,1′-biphenyl]-2-yl)methyl)piperazine-1-carbonyl)-2-(2,6-dioxopiperidin-3-yl)isoindoline-1,3-dione], the pIC50 is 5.84.
